The source of these data is patent US20260226073A1 (AURIGENE ONCOLOGY LIMITED, priority 2023, published 2026).

In experiment [1] the test system is NFAT signaling pathway in Jurkat NFAT reporter cells. The experiment in a line: Jurkat NFAT reporter assay. The following applies: Homo sapiens, 30 min with compound, then soluble anti-human CD3/CD28 antibody for 6 hours, luciferase readout, read-out: EC50 (Group). The class given is cell-based. A digest of the protocol: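 Jurkat cells bearing an NFAT-RE-driven luciferase reporter (1×10^5 per well) preincubated with Cbl-b inhibitor for 30 min, then stimulated 6 h with soluble anti-CD3/CD28. Luminescence read with Bio-Glo; values are fold change over anti-CD3/CD28-stimulated cells without inhibitor.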
(In general: A reporter such as luciferase makes a cellular process visible.)

Experiment [2] concerns the target T1, human recombinant CBL-b (human Biotin CBL-b recombinant protein a.a. 39-426) (Homo sapiens, UniProt Q13191).
T1 construct: human Biotin CBL-b recombinant protein a.a; 39-426; Biotin (biotinylated); made in house
The experiment in a line: Biochemical assay for CBL-b inhibition (ligand displacement TR-FRET). The class given is binding. As to conditions: 50 nM CBL-b, 0.3 μM Bodipy FL-Probe, read-out: IC50 (CBL-b inhibition, group). The essentials: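 Biotinylated CBL-b (a.a. 39-426, 50 nM final) pre-incubated with compound 60 min at RT in HEPES/NaCl/Triton/BSA/TCEP buffer, then Bodipy FL probe (0.3 μM final) 60 min, then terbium-streptavidin 60 min. TR-FRET read at 665/615 nm; IC50 and % max inhibition from sigmoidal fits.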

A word on the EC50: it is the concentration that produces a half-maximal response. One may read the IC50 as the midpoint of a concentration-inhibition curve.

T1 sequence (Q13191 39-426): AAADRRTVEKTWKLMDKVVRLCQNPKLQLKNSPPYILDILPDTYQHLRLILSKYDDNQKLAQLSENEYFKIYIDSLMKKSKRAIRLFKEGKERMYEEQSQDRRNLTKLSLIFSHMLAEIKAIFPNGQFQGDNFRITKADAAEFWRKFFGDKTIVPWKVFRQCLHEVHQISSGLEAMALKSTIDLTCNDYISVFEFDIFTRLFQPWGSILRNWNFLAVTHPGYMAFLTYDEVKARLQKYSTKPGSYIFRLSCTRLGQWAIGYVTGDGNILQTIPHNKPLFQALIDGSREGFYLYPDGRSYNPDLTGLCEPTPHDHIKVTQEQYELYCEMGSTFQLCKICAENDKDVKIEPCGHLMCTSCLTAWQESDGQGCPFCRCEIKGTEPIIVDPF

Regarding `Cc1cc(CNCC2CC(F)(F)C2)cc(N2Cc3ccc(-c4ccc(F)cc4-c4nncn4C)cc3C2=O)n1` [Compound 260, 2-(4-((((3,3-Difluorocyclobutyl)methyl)amino)methyl)-6-methylpyridin-2-yl)-6-(4-fluoro-2-(4-methyl-4H-1,2,4-triazol-3-yl)phenyl)isoindolin-1-one], the EC50 in experiment [1] is under 300 nM. Also, the IC50 in experiment [2] was under 80 nM.

Regarding `Cc1cc(CNCC2CCC2)cc(N2Cc3ccc(-c4ccc(Cl)cc4-c4nncn4C)cc3C2=O)n1` [Compound 274, 6-(4-Chloro-2-(4-methyl-4H-1,2,4-triazol-3-yl)phenyl)-2-(4-(((cyclobutyl-methyl)amino)methyl)-6-methylpyridin-2-yl)isoindolin-1-one], in experiment [1], the 50% effective concentration (EC50) is under 300 nM. In experiment [2], the 50% inhibitory concentration (IC50) was under 80 nM.

Turning to `C[C@@H]1C[C@H](C)CN(Cc2cc(N3Cc4ccc(C5(Cc6nncn6C)COC5)cc4C3=O)cc(C(F)(F)F)c2)C1` [Compound 65, 2-(3-(((3S,5R)-3,5-Dimethylpiperidin-1-yl)methyl)-5-(trifluoromethyl)phenyl)-6-(3-((4-methyl-4H-1,2,4-triazol-3-yl)methyl)oxetan-3-yl)isoindolin-1-one], the EC50 in experiment [1] was 300 to 1000 nM. The IC50 in experiment [2] lay within 80 to 300 nM.

As for `Cn1cnnc1CC1(c2ccc3c(c2)C(=O)N(c2cc(CNCCC(F)(F)F)cc(Cl)n2)C3)CC(C#N)C1` (centres unmarked) [Compound 158, 3-(2-(6-Chloro-4-(((3,3,3-trifluoropropyl)amino)methyl)pyridin-2-yl)-3-oxoisoindolin-5-yl)-3-((4-methyl-4H-1,2,4-triazol-3-yl)methyl)cyclobutane-1-carbonitrile], the concentration giving a half-maximal response (EC50) in experiment [1] is 1000 to 10000 nM. Also, in experiment [2], the IC50 was under 80 nM.

In the case of `C[C@H]1CCCN(Cc2cc(N3CCCCC3)cc(N3Cc4ccc(C5(Cc6nncn6C)COC5)cc4C3=O)c2)C1` [Compound 14, (S)-6-(3-((4-Methyl-4H-1,2,4-triazol-3-yl)methyl)oxetan-3-yl)-2-(3-((3-methyl-piperidin-1-yl)methyl)-5-(piperidin-1-yl)phenyl)isoindolin-1-one], in experiment [1], the concentration giving a half-maximal response (EC50) fell in the range of 1000 to 10000 nM. In addition, the IC50 in experiment [2] was 300 to 5000 nM.

Take `C[C@H]1CCCN(Cc2cc(Cl)nc(N3Cc4ccc([C@]5(c6nncn6C)C[C@@H](C)C5)cc4C3=O)c2)C1` [Compound 58, 2-(6-Chloro-4-(((S)-3-methylpiperidin-1-yl)methyl)pyridin-2-yl)-6-((1s,3R)-3-methyl-1-(4-methyl-4H-1,2,4-triazol-3-yl)cyclobutyl)isoindolin-1-one]: the EC50 in experiment [1] was 1000 to 10000 nM. For the same molecule, in experiment [2], the concentration for half-maximal inhibition (IC50) was 300 to 5000 nM.

Take `Cn1cnnc1CC1(c2ccc3c(c2)C(=O)N(c2cc(CNCC4CC4)cc(C(F)(F)F)c2)C3)COC1` [Compound 13, 2-(3-(((Cyclopropylmethyl)amino)methyl)-5-(trifluoromethyl)phenyl)-6-(3-((4-methyl-4H-1,2,4-triazol-3-yl)methyl)oxetan-3-yl)isoindolin-1-one]: in experiment [1], the EC50 was 1000 to 10000 nM. Also, the IC50 in experiment [2] lay within 80 to 300 nM.

Consider `C[C@H]1CCCN(Cc2cc(Cl)nc(N3Cc4ccc(C5(Cc6nncn6C)CCC5)cc4C3=O)c2)C1` [Compound 89, (S)-2-(6-Chloro-4-((3-methylpiperidin-1-yl)methyl)pyridin-2-yl)-6-(1-((4-methyl-4H-1,2,4-triazol-3-yl)methyl)cyclobutyl)isoindolin-1-one], for which the EC50 in experiment [1] was under 300 nM. Moreover, in experiment [2], the IC50 was under 80 nM.

As for `Cn1cnnc1CC1(c2ccc3c(c2)C(=O)N(c2cc(CNCC4CC4)cc(Cl)n2)C3)CC(C#N)C1` (centres unmarked) [Compound 156], the EC50 in experiment [1] was in the range of 300 to 1000 nM. Also, the IC50 in experiment [2] was under 80 nM.

Consider `CC(NCC1CCC1)c1cc(Cl)nc(N2Cc3ccc(-c4ccc(Cl)cc4-c4nncn4C)cc3C2=O)c1` (centres unmarked) [Compound 107, 6-(4-Chloro-2-(4-methyl-4H-1,2,4-triazol-3-yl)phenyl)-2-(6-chloro-4-(1-((cyclo-butylmethyl)amino)ethyl)pyridin-2-yl)isoindolin-1-one], for which the EC50 in experiment [1] is under 300 nM. The half-maximal inhibitory concentration (IC50) in experiment [2] is under 80 nM.

Regarding `CCC1CCCN(Cc2cc(Cl)nc(N3Cc4ccc(C5(Cc6nncn6C)COC5)cc4C3=O)c2)C1` (centres unmarked) [Compound 148, 2-(6-Chloro-4-((3-ethylpiperidin-1-yl)methyl)pyridin-2-yl)-6-(3-((4-methyl-4H-1,2,4-triazol-3-yl)methyl)oxetan-3-yl)isoindolin-1-one], the EC50 in experiment [1] was under 300 nM. In addition, the IC50 in experiment [2] is under 80 nM.

Consider `Cc1cc(C(C)NCC2CC2)cc(N2Cc3ccc(-c4ccc(Cl)cc4-c4nncn4C)cc3C2=O)n1` (centres unmarked) [Compound 103, 6-(4-Chloro-2-(4-methyl-4H-1,2,4-triazol-3-yl)phenyl)-2-(4-(1-((cyclopropylmethyl)amino)ethyl)-6-methylpyridin-2-yl)isoindolin-1-one], for which the concentration giving a half-maximal response (EC50) in experiment [1] is under 300 nM. The IC50 in experiment [2] was under 80 nM.

Consider `Cc1nc(CNCC2CC2)cc(N2Cc3ccc(-c4ccc(F)cc4-c4nncn4C)cc3C2=O)n1` [Compound 133, 2-(6-(((Cyclopropylmethyl)amino)methyl)-2-methylpyrimidin-4-yl)-6-(4-fluoro-2-(4-methyl-4H-1,2,4-triazol-3-yl)phenyl)isoindolin-1-one], for which the EC50 in experiment [1] lay within 1000 to 10000 nM. In addition, the half-maximal inhibitory concentration (IC50) in experiment [2] was under 80 nM.

Regarding `Cn1cnnc1CC1(c2ccc3c(c2)C(=O)N(c2cc(CN4CCC5(CC5)C4)cc(Cl)n2)C3)COC1` [Compound 62, 2-(4-((5-Azaspiro[2.4]heptan-5-yl)methyl)-6-chloropyridin-2-yl)-6-(3-((4-methyl-4H-1,2,4-triazol-3-yl)methyl)oxetan-3-yl)isoindolin-1-one], the EC50 in experiment [1] is 300 to 1000 nM. The IC50 in experiment [2] was 80 to 300 nM.

On to `C[C@H]1CCCN(Cc2cc(Cl)nc(N3Cc4ccc(C5(Cc6nncn6C)CC(F)(F)C5)cc4C3=O)c2)C1` [Compound 152, (S)-2-(6-Chloro-4-((3-methylpiperidin-1-yl)methyl)pyridin-2-yl)-6-(3,3-difluoro-1-((4-methyl-4H-1,2,4-triazol-3-yl)methyl)cyclobutyl)isoindolin-1-one], for which, in experiment [1], the EC50 was under 300 nM. In experiment [2], the IC50 was under 80 nM.

For `Cc1cc(CNCC2CC2)cc(N2Cc3c(cc(-c4ccc(F)cc4-c4nncn4C)cc3C(F)(F)F)C2=O)n1` [Compound 256, 2-(4-(((Cyclopropylmethyl)amino)methyl)-6-methylpyridin-2-yl)-6-(4-fluoro-2-(4-methyl-4H-1,2,4-triazol-3-yl)phenyl)-4-(trifluoromethyl)isoindolin-1-one], the EC50 in experiment [1] lay in the range of 1000 to 10000 nM. Also, the IC50 in experiment [2] is under 80 nM.

Consider `Cc1cc(CNCCC(F)(F)F)cc(N2Cc3ccc(-c4ccc(F)cc4-c4nncn4C)cc3C2=O)n1` [Compound 326, 6-(4-Fluoro-2-(4-methyl-4H-1,2,4-triazol-3-yl)phenyl)-2-(6-methyl-4-(((3,3,3-trifluoropropyl)amino)methyl)pyridin-2-yl)isoindolin-1-one], for which, in experiment [1], the EC50 was in the range of 1000 to 10000 nM. The IC50 in experiment [2] was under 80 nM.

Turning to `Cc1cc(N2Cc3ccc(C4(Cc5nncn5C)COC4)cc3C2=O)cc(CN2CCC[C@H](C)C2)n1` [Compound 23, (S)-6-(3-((4-Methyl-4H-1,2,4-triazol-3-yl)methyl)oxetan-3-yl)-2-(2-methyl-6-((3-methylpiperidin-1-yl)methyl)pyridin-4-yl)isoindolin-1-one], the EC50 in experiment [1] is 1000 to 10000 nM. Further, in experiment [2], the IC50 is 80 to 300 nM.

Regarding `CC(Cc1nncn1C)Nc1ccc2c(c1)C(=O)N(c1cc(CN3CCC[C@H](C)C3)cc(Cl)n1)C2` (some centres unmarked) [Compound 190], in experiment [1], the half-maximal effective concentration (EC50) lay in the range of 1000 to 10000 nM. For the same molecule, the IC50 in experiment [2] was under 80 nM.

As to `C[C@@H](Cc1nncn1C)c1ccc2c(c1)C(=O)N(c1cc(CNCCC(F)(F)F)cc(Cl)n1)C2` (single isomer, unassigned) [Compound 163], the EC50 in experiment [1] lay within 300 to 1000 nM. Further, the IC50 in experiment [2] is under 80 nM.

For the molecule `Cn1cnnc1-c1cc(Cl)ccc1-c1ccc2c(c1)C(=O)N(c1cc(Cl)cc(CNCC3CC3)c1)C2` [Compound 119, 6-(4-Chloro-2-(4-methyl-4H-1,2,4-triazol-3-yl)phenyl)-2-(3-chloro-5-(((cyclo-propylmethyl)amino)methyl)phenyl)isoindolin-1-one], in experiment [1], the EC50 lay within 300 to 1000 nM. Also, the IC50 in experiment [2] is under 80 nM.

`Cn1cnnc1CC1(c2ccc3c(c2)C(=O)N(c2cc(CN4CCCCC4)cc(Cl)n2)C3)COC1` [Compound 64, 2-(6-Chloro-4-(piperidin-1-ylmethyl)pyridin-2-yl)-6-(3-((4-methyl-4H-1,2,4-triazol-3-yl)methyl)oxetan-3-yl)isoindolin-1-one]: the EC50 in experiment [1] is under 300 nM. The IC50 in experiment [2] was under 80 nM.

In the case of `C[C@H](N[C@H](C)c1cc(Cl)nc(N2Cc3ccc(C4(Cc5nncn5C)COC4)cc3C2=O)c1)C1CC1` (single isomer, unassigned) [Compound 239], the 50% effective concentration (EC50) in experiment [1] was under 300 nM. The 50% inhibitory concentration (IC50) in experiment [2] is under 80 nM.

On to `Cn1cnnc1C[C@]1(c2ccc3c(c2)C(=O)N(c2cc(CNCC4CC4)cc(Cl)n2)C3)C[C@H](C#N)C1` (single isomer, unassigned) [Compound 233, (1r,3r)-3-(2-(6-Chloro-4-(((cyclopropylmethyl)amino)methyl)pyridin-2-yl)-3-oxoisoindolin-5-yl)-3-((4-methyl-4H-1,2,4-triazol-3-yl)methyl)cyclobutane-1-carbo-nitrile], for which the EC50 in experiment [1] was under 300 nM. In experiment [2], the IC50 was under 80 nM.

Consider `Cn1cnnc1CC1(c2ccc3c(c2)C(=O)N(c2cc(CNC[C@@H]4CCCO4)cc(Cl)n2)C3)COC1` (single isomer, unassigned) [Compound 196], for which the 50% effective concentration (EC50) in experiment [1] was under 300 nM. The IC50 in experiment [2] is under 80 nM.
